This note sets out measurements from patent publication US7572801B2, “Pyridopyrimidinone derivatives which are HM74A agonists” (Hoffmann-La Roche Inc., priority 2007, dated 2009).

This experiment addresses T1, HM74A (Homo sapiens, UniProt Q8TDS4).
T1 construct: expressed in transfected cells; host or cells: HEK-293, stably transfected (pcDNA3.1 vectors), co-expressing chimeric G protein Gqi9
As to the kind of experiment: Secondary fluorescent calcium indicator assay (FLIPR). The class given is cell-based. The following applies: stable transfected HEK-293 cells expressing HM74A and chimeric G protein Gqi9. The protocol:
Secondary Fluorescent Calcium Indicator Assay (FLIPR)
HEK-293 cells were grown in tissue culture medium (DMEM/Nut mix F12 Medium with Glutamax I (Invitrogen), containing 10% FBS) at 37° C. in a 5% CO2 atmosphere. These cells were cultured in 6-well dishes at 3×10^5 cells/well and double transfected with DNA vectors (pcDNA3.1, Invitrogen) expressing either HM74A or HM74 and the chimeric G protein Gqi9. Two days after transfection the wells were combined and plated in 150 cm^2 flasks, in the presence of 50 μg/ml Hygromycin (Invitrogen) and 500 μg/ml Geneticin (Gibco). Fourteen days after plating, colonies were picked, expanded and analyzed for expression using a functional assay (FLIPR). Stable transfected HEK-293 cells expressing either HM74A or HM74 and the chimeric G protein Gqi9 were plated at 50,000 cells/well in black 96-well plates with clear bottom (Costar) and cultured to confluency overnight in growth media (DMEM/Nut mix F12 Medium with Glutamax I (Invitrogen), containing 10% FBS) at 37° C. in a humidified cell incubator containing 5% CO2. Growth media was aspirated and replaced with 100 μl of 1× FLIPR Calcium Assay Dye (Molecular Devices) in Hank's balanced salt solution (HBSS) containing 10 mM HEPES, and […] probenecid (Sigma), for 1 hour at 37° C. Cell plates were transferred to a FLIPR unit (Molecular Devices), and 50 μl of 3× compound dilution were added. Fluorescence emissions were measured and the effects of compounds were expressed as % stimulation of maximal nicotinic acid response (100 μM). Sigmoidal curves were fitted using the XLfit3 program (ID Business Solutions Ltd. UK) and EC50 values determined.

T1 sequence (Q8TDS4 whole entry): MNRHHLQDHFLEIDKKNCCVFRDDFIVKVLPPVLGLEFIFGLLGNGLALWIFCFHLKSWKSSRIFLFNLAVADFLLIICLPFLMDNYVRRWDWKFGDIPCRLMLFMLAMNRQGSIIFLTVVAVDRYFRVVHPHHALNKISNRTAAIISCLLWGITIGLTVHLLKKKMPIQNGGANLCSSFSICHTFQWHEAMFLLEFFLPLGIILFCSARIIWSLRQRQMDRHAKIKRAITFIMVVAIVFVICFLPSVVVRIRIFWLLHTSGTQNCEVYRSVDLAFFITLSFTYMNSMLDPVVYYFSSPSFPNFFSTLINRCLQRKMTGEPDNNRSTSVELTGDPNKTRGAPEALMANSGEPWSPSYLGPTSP

One may read the EC50 as the concentration at which the effect is half-maximal. As to `O=c1[nH]c(COc2ccccc2)nc2ncccc12` [Example 2, 2-Phenoxymethyl-3H-pyrido[2,3-d]pyrimidin-4-one], the EC50 worked out at 5710 nM. For `COc1ccc(CCCOc2nc3ncccc3c(=O)[nH]2)cc1` [Example 28, 2-[3-(4-Methoxy-phenyl)-propoxy]-3H-pyrido[2,3-d]pyrimidin-4-one], the EC50 amounted to 2710 nM.

For the molecule `Cc1ccccc1OCCCOc1nc2ncccc2c(=O)[nH]1` [Example 58, 2-(3-o-Tolyloxy-propoxy)-3H-pyrido[2,3-d]pyrimidin-4-one], the EC50 amounted to 426 nM.
